These results are taken from patent US20110045102A1, “Cancer chemotherapy compositions comprising PI3K pathway modulators and triptolide” (priority 2005, published 2011).

One data set concerns OCC1-SEAP cell cultures. The data set is described as follows: DNA fragmentation (laddering) on agarose gel (Example II). Type of data set: cell-based, human. Particulars: 48 hr; TPL 100 ng/ml, carboplatin 50 μg/ml. The protocol:
Following 48 h to 72 h treatment incubations, cells were suspended into culture medium and pelleted in tubes. DNA was isolated from collected cells using a Puregene™ DNA isolation kit (Gentra Systems, Minneapolis, Minn.). The quantity and purity of nucleic acid preparations were estimated by measuring the absorbance of each sample (A260/A280). DNA preparations (10 μg/well) were loaded onto 1.2% agarose gels and visualized with ethidium bromide stain.

Data set [1] relates to OCC1-SEAP ovarian cancer cells. The data set can be described thus: Cell survival by DNA content of culture wells (Example II). The following applies: 48 hours; triptolide 100 ng/ml, carboplatin 50 (FIG. 8 legend: mg/ml). Type of data set: cell-based, human. The protocol:
Cell survival was assessed as the number of cells remaining in culture, following exposure to treatments. The DNA content of individual culture wells was used as an indication of cell number. Cells plated in 24 well culture plates were allowed to approach confluence (80%) in Ham's F-12 medium plus 10% BCS. Cultures were then incubated in DMEM, plus 0.1% BSA and 0.1% BCS, in the presence of vehicle control, carboplatin (0-100 μg/ml), Triptolide (100 ng/ml) or a combination of these for 24 to 96 hrs. Media aliquots were taken when appropriate for SEAP analysis. The DNA was measured fluorometrically, as described above, in Example I. Briefly, the fluorescence of an aliquot of sonicated cell suspension, into which SYBR Green I fluorescent dye (Molecular Probes, Eugene, Oreg.), had been incorporated was measured.

In a further data set the test system is OCC1-SEAP-12 cells. The data set is described as follows: DNA laddering on agarose gel (Example III). The data set is classed as cell-based, human. The following applies: 48 hr and 72 hr. The protocol:
Following 48 hr to 72 hr treatment incubations, cells were suspended into culture medium and pelleted in tubes. DNA was isolated from collected cells using a Puregene™ DNA isolation kit (Gentra Systems, Minneapolis, Minn.). The quantity and purity of nucleic acid preparations were estimated by measuring the optical density of each sample A260/A280). DNA preparations (10 μg/well) were loaded onto 1.2% agarose gels and visualized with ethidium bromide stain.

In the next data set the test system is caspase 3. The data set can be described thus: Western blot for active caspase 3 (Example III). The data set is classed as cell-based, human. The following applies: LY294002 10 μM, carboplatin 50 μg/ml. The protocol: The OCC1-SEAP-12 cells were grown to 80% confluence. Cultures were incubated in DMEM plus 0.1% bovine serum albumin (BSA) and 0.1% BCS to which either vehicle control, carboplatin (0-50 μg/ml), LY294002 (0-20 μM) or combinations of these treatments. Following 24, 48 or 72 hr cells were lysed with sample buffer (62.5 mM Tris-HCl, pH 6.8, 2% SDS, 5% glycerol, […], 0.5% β-mercaptoethanol). Total cell lysates were subjected to SDS polyacrylamide gel electrophoresis 9 page) and transferred to PVDF membranes (Millipore, Bedford, Mass.). Membranes were immunoblotted with antibodies to both the phosphorylated and non-phosphorylated forms of […] (Cell Signaling Technology, Beverly, Mass.), or alternatively, with antibodies to cleaved and full length caspase-3 (Cell Signaling Technology, Beverly, Mass.).
In general terms: Immunoblotting shows a protein as a band on a membrane.

For data set [2], the system named is OCC1-SEAP-12 ovarian cancer cells. The data set is classed as in vivo. Here is the method:
Athymic nude mice were obtained and inoculated intraperitoneally with OCC1-SEAP-12 cells as described above in Examples I and II. Animals received injections of either vehicle control (PBS containing 25% DMSO), or carboplatin (60 mg/kg) alone, or in combination with LY294002 (50 mg/kg) every other day for 6 days. Blood samples were collected into capillary tubes from saphenous vein lancings at regular intervals during and following treatments. Capillary tubes were centrifuged, and the plasma samples were frozen (−20° C.), until the time of SEAP assay. The Washington State University Animal Care and Use Committee approved all procedures.
Blood plasma and cell culture medium samples were assayed for SEAP activity using the Great EscAPe SEAP fluorescence detection kit (Clontech Laboratories, Palo Alto, Calif.) as described above in Examples I and II. Blood plasma samples were diluted 1:100 prior to the assay to bring values within the linear range of the standard curve. The intraassay and interassay coefficients of variation were 2.5% and 18.8%, respectively.

The next data set has as its system Akt. The data set can be described thus: Western blot for Akt phosphorylation (Example III). The data set is classed as cell-based, human. Particulars: 6 hr and 24 hr; LY294002 10 (FIG. 18 legend: mM), carboplatin 50. The protocol:
The OCC1-SEAP-12 cells were grown to 80% confluence. […] […] Total cell lysates were subjected to SDS polyacrylamide gel electrophoresis 9 page) and transferred to PVDF membranes (Millipore, Bedford, Mass.). Membranes were immunoblotted with antibodies to both the phosphorylated and non-phosphorylated forms of […] (Cell Signaling Technology, Beverly, Mass.), or alternatively, with antibodies to cleaved and full length caspase-3 (Cell Signaling Technology, Beverly, Mass.).

For `N.N.O=C([O-])C1(C(=O)[O-])CCC1.[Pt+2]` [carboplatin], the DNA laddering entry in the data set with OCC1-SEAP cell cultures is reported as “evident”; with OCC1-SEAP-12 cells it was “observed”. Besides, the “decrease in cell survival (μg DNA/ml) compared to control cultures” value in data set [1] was 30%. In addition, the “time at which active 17 kDa caspase 3 appears” value in the data set on caspase 3 is 48 h. Besides, in data set [2] (carboplatin 60 mg/kg, alone or with LY294002 50 mg/kg), the drug induced toxicity result is “muscle wasting and became anemic”. Also, in data set [2] (physical appearance of mice after treatment), the “abdominal swelling (FIG. 24)” value was “displayed abdominal swelling”. Besides, the “tumor size vs vehicle control (FIG. 23)” value in data set [2] (single agents: LY294002 50 mg/kg, carboplatin 60 mg/kg) is “no significant difference”. Besides, in the data set with Akt, the Akt phosphorylation entry is listed as “had not effect”.
